From article PMC11403423 (iScience, 2024)

Experiments:
OAT1/3 [1] = assay: Fluorescein uptake assay; format: cell-based, human; settings: 2 μM fluorescein, 30 min
OAT1/3 [2] = assay: Transported fluorescein amount; format: in vitro ADME, human; settings: plate reader; 30 min
OAT3 = target: T1, OAT3 (Homo sapiens, UniProt Q8TCC7); assay: Transcellular transport assay of OAT3 substrate
T1 sequence (Q8TCC7 1-542): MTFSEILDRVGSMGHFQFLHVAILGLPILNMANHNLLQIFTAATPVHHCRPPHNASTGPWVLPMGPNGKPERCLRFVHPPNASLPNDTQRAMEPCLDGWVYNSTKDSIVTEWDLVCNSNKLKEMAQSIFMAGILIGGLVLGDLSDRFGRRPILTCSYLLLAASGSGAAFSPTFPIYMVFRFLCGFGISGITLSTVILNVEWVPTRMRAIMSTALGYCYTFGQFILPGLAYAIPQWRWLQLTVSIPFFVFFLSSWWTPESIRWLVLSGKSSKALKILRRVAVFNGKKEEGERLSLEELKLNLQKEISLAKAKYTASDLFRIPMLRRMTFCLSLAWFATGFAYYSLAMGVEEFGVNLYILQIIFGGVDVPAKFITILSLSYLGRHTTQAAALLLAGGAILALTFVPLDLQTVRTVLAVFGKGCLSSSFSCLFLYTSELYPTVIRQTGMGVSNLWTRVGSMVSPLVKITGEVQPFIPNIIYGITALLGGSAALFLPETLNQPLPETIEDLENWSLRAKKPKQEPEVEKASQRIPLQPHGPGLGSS

#1-LTL+ PToC = assay: LIVE/DEAD cell viability assay; format: cell-based, human; settings: cimetidine with cisplatin
[3] = system: #1-LTL+ and #2-LTL+ PToCs; assay: Nephrotoxicity testing, LDH release; format: cell-based, human; settings: for Effect on cisplatin-induced LDH release: cimetidine 10 mM, cisplatin 100 μM
MRPs [4] = assay: Fluorescein uptake and transport with MK571 in #1-LTL+ PToC; format: cell-based, human
MRPs [5] = assay: Transcellular transport assay of OAT1/3 substrates with MK571 in #1-LTL+ PToC; settings: 10 μM MK571
OAT1 = target: T2, OAT1 (Homo sapiens, UniProt Q4U2R8); assay: Transcellular transport assay of OAT1 substrates; settings: 10 μM substrate; #1-LTL+ PToC
T2 sequence (Q4U2R8 1-563): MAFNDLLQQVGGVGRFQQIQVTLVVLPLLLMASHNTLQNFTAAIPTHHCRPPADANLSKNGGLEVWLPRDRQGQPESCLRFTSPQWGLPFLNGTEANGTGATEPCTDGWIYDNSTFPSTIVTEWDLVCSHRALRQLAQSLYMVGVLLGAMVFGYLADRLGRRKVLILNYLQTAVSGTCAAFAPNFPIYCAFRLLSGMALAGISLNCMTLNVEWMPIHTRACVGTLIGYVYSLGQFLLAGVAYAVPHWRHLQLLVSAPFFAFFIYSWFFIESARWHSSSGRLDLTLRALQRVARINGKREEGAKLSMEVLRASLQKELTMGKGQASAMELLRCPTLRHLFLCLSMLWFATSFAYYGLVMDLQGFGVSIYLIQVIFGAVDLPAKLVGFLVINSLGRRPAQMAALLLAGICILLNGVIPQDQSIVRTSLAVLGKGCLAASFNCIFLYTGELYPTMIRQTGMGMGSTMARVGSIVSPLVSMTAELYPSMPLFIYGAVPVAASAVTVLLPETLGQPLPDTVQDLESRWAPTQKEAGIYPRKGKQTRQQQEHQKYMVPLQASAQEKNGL

OCT2 and MATE1 = assay: Transcellular transport assay of metformin in PToC, LC/MS
P-gp = P-gp (Homo sapiens, UniProt P08183); settings: #2-LTL+ PToC
Sequence of P-gp (P08183 whole entry): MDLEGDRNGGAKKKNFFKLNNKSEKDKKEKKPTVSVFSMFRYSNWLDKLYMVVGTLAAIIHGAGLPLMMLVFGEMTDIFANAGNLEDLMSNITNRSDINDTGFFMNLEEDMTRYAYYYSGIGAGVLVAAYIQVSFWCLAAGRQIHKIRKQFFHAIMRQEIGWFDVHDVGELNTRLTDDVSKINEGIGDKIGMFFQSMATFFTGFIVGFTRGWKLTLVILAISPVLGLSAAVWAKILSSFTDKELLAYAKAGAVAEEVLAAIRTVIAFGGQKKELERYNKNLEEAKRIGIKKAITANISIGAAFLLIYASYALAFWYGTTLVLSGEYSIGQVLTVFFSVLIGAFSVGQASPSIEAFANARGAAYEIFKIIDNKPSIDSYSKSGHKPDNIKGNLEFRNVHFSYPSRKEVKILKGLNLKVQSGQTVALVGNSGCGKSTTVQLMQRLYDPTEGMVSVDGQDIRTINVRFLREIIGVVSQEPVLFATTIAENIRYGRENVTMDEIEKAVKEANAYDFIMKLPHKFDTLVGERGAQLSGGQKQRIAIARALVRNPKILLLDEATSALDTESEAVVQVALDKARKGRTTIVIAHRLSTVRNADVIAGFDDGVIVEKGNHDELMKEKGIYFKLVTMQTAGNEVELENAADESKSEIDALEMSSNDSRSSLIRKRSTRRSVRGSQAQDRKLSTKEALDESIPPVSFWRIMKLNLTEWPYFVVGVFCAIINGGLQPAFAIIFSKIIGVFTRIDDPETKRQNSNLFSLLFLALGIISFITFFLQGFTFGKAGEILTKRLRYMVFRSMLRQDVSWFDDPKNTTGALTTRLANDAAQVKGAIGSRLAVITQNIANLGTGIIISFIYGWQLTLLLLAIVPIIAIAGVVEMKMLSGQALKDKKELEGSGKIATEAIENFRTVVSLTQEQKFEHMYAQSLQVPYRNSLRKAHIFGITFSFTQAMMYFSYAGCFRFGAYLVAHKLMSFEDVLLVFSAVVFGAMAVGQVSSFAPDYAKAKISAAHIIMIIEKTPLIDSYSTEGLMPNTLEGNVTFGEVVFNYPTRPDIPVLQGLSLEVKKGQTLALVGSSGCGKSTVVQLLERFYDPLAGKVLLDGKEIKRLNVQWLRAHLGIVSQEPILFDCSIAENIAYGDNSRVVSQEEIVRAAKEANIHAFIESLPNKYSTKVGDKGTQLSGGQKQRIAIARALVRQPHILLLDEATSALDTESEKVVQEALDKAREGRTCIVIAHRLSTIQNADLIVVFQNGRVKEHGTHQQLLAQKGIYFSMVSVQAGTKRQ

Question: Which “Fluorescein uptake of #2-LTL+ PToC relative to #1-LTL+ PToC” value (OAT1/3 [1]) does the source give for O=C1OC2(c3ccc(O)cc3Oc3cc(O)ccc32)c2ccccc21 [fluorescein] here?
Answer: The value was “approximately 60%”.

Question: And the “Fluorescein uptake compared to RPTEC” value (OAT1/3 [1]; #1-LTL+ and #2-LTL+ PToC, absence of probenecid)?
Answer: Its value is “significantly higher fluorescein uptake”.

Question: What about the “Transcellular transport of fluorescein in #2-LTL+ PToC relative to #1-LTL+ PToC” value (OAT1/3 [2]) of the same compound?
Answer: The value was 10%.

Question: For CC(C)c1nc(N(C)S(C)(=O)=O)nc(-c2ccc(F)cc2)c1/C=C/[C@@H](O)C[C@@H](O)CC(=O)O [rosuvastatin], which “Basal to apical (b → a) transport (Papp) in #1-LTL+ versus other PToC models” value (OAT3; 10 μM substrate, #1-LTL+ PToC) is on record?
Answer: Its value is “notably higher”.

Question: Which “Effect on cisplatin-induced cell death (LIVE/DEAD)” value (#1-LTL+ PToC) does the source give for CN/C(=N/CCSCc1nc[nH]c1C)NC#N [cimetidine] here?
Answer: Its value is “reduction in cell death”.

Question: What about the “Effect on cisplatin-induced LDH release” value ([3]; 24 h, #1-LTL+) of the same compound?
Answer: The value was “significant reduction”.

Question: What about the “Effect on cisplatin-induced LDH release” value ([3]; 24 h, #2-LTL+) of the same compound?
Answer: Its value is “less pronounced”.

Question: And the “Effect on cisplatin-induced LDH release” value ([3]; 48 h, #1-LTL+ PToC)?
Answer: Its value is “no difference among all conditions”.

Question: And the “Effect on cisplatin-induced LDH release” value ([3]; 48 h, #2-LTL+ PToC)?
Answer: Its value is “notable reduction”.

Question: CN(C)C(=O)CCSC(SCCC(=O)O)c1cccc(/C=C/c2ccc3ccc(Cl)cc3n2)c1 (stereo not drawn) [MK571] was tested. Which Fluorescein transcellular transport (MRPs [4]) did it give?
Answer: Its Fluorescein transcellular transport is “reduction”.

Question: And the “Intracellular fluorescein accumulation (fluorescence intensity)” value (MRPs [4])?
Answer: The value was “notable increase”.

Question: What about the “Effect on OAT1 excretion of PAH” value (MRPs [5]) of the same compound?
Answer: Its value is “significant impairment”.

Question: What about the “Effect on OAT1 excretion of adefovir” value (MRPs [5]) of the same compound?
Answer: The value was “significant impairment”.

Question: And the “Effect on OAT3 transport of rosuvastatin” value (MRPs [5])?
Answer: Its value is “no substantial effect”.

Question: How did the “Basal to apical (b → a) transport (Papp) in #1-LTL+ versus other PToC models” value (OAT1) turn out when Nc1ncnc2c1ncn2CCOCP(=O)(O)O [adefovir] was run?
Answer: The value was “notably higher”.

Question: Which “Difference in ER between #1-LTL+ and #2-LTL+ PToCs” value (OCT2 and MATE1) does the source give for CN(C)C(=N)N=C(N)N [metformin] here?
Answer: Its value is “no significant differences”.

Question: What about the “Transcellular basal to apical (b → a) transport rate, comparison of PToCs” value (OCT2 and MATE1; #1-LTL+ PToC versus #2-LTL+ and RPTEC) of the same compound?
Answer: Its value is “highest transport rates”.

Question: With COc1cccc2c1cc([N+](=O)[O-])c1c(C(=O)O)cc3c(c12)OCO3 [AA, Aristolochic acid I] as the compound, how does the “Normalized LDH release in #1-LTL+ compared to #2-LTL+” value ([3]; 50 μM, 24 h) read?
Answer: The value was “markedly higher”.

Question: What about the “Normalized LDH release compared to control group without aristolochic acid” value ([3]; 50 μM, basal, 24 h, #1-LTL+ and #2-LTL+ PToCs) of the same compound?
Answer: Its value is “significantly higher”.

Question: For CCCN(CCC)S(=O)(=O)c1ccc(C(=O)O)cc1 [probenecid], which “Impact on rosuvastatin transport” value (OAT3; probenecid 100 μM, #1-LTL+ and #2-LTL+) is on record?
Answer: The value was “minimal impact”.

Question: C=C[C@H]1C[N@@]2CC[C@H]1C[C@@H]2[C@@H](O)c1ccnc2ccc(OC)cc12 [quinidine] was tested. Which “Basal to apical (b → a) transport rate compared with RPTEC” value (P-gp) did it give?
Answer: Its value is “less basal to apical (b → a) transport rate”.
